Measurements from US20250179028A1, “ACRYLAMIDE COMPOUNDS” (NRG THERAPEUTICS LTD, priority 2022, published 2025).
≈ marks a conversion by molar mass, not a printed value. Like-named read-outs stand apart in the source and are kept apart here.

Key:
[1] = Hepatocyte clearance assay, rat; type: in vitro ADME; conditions: average value from two experiments, read-out: Rat heps Clint
Protocol: (§1) In vitro clearance studies were performed in primary rat and human hepatocytes (BiolVT). Vials of cryopreserved rat or human hepatocytes were thawed in a 37° C. water bath for 2 min. Cells were transferred into thawing medium (Williams' Medium E containing 30% Percoll, 1×GlutaMAX-1, 15 mM HEPES, 5% fetal bovine serum (FBS), 4 μg/ml insulin, 1 μM dexamethasone), centrifuged at 100 g for 10 min then resuspended in culture medium (Leibovitz's L-15 Medium) at a concentration of 0.5×10^6 viable cells/mL (number of viable cells assessed using AO/PI staining). Hepatocytes (198 μL) were transferred into wells of a 96-well non-coated plate and placed in a 37° C. incubator for 10 min. Test compound solutions were prepared from 10 mM stocks in DMSO, diluted to 100 μM in 50% (v/v in water) acetonitrile. Test compound samples (2 μl) were added to each well of hepatocytes and incubated at 37° C. Samples (25 μl) were collected at t=0, 15, 30, […] and 120 min, mixed with 6 volumes (150 μl) of acetonitrile containing internal standard (100 nM alprazolam, 200 nM caffeine and 100 nM tolbutamide), vortexed for 5 min and centrifuged for 45 min at 3220 g. An aliquot of supernatant (100 μL) was diluted with 100 μL ultra-pure water, and the mixture was used for LC/MS/MS analysis. All incubations were performed in duplicate. Peak areas were determined from extracted ion chromatograms. The slope value, k, was determined by linear regression of the natural logarithm of the remaining percentage of the parent drug vs. incubation time curve. The in vitro half-life (in vitro t½) was determined from the slope value: in vitro t½=0.693/k. Conversion of the in vitro t½ (in min) into the in vitro intrinsic clearance (in vitro CLint, in μL/min/1×10^6 cells) was done using the following equation (mean of duplicate determinations):
(§2) [formula] • V=incubation volume (0.2 mL) • N=number of hepatocytes per well (0.1×10^6 cells).

CYP2D6 = CYP2D6 (Homo sapiens (Human), UniProt P10635); assay: Cytochrome P450 CYP2D6 inhibition in human liver microsomes; type: in vitro ADME; conditions: human liver microsomes, average value from two experiments; for inhibition at 20 min, 1 µM: probe dextromethorphan 2 µM (dextrorphan formation), 1 uM test compound, negative values = no effective inhibition
Protocol: Studies to assess tested compound mediated inhibition of cytochrome P450 enzyme isoform CYP2D6 were performed using human liver microsomes (BD Gentest) using either a single concentration (1 μM) of test compound or concentration response (0.1, 0.3, 1, 3, 10 and 30 μM) to derive an IC50. Tested compound solutions were prepared from 10 mM stocks in DMSO and diluted to 200 μM in DMSO. Reactions were prepared in a 96 deep well plate by combining 1 μl test compound with 179 μl reaction mixture (100 mM phosphate buffered saline (PBS), 0.2 mg/mL microsomes and 2 μM Dextromethorphan prepared from stocks as detailed below).
The positive control inhibitor, quinidine, was used at a final concentration of 0.5 μM when used at a single concentration. The final concentrations of quinidine used to derive an IC50 were 0, 0.1, 0.3, 1, 3, 10 and 30 μM. Plates were warmed at 37° C. for 15 min before starting reactions with 20 μl 10 mM NADPH solution in PBS and incubated for 20 min at 37° C. The assay is performed in duplicate. Reactions were quenched with 200 μl cold acetonitrile containing internal standards (200 nM labetalol, 200 nM alprazolam and 100 nM tolbutamide). The plate was centrifuged at 4000 rpm for 30 minutes, placed on ice for 20 minutes and then centrifuged at 4000 rpm for 30 minutes again to precipitate protein. 100 μL of the supernatant was transferred to a new plate and diluted with 100 μL pure water before being analysed using UPLC/MS/MS. The products of the transformation for dextromethorphan to dextrorphan was monitored by UPLC-MS/MS. The inhibition of CYP2D6 in human liver microsomes was measured as the percentage decrease in the activity of dextrorphan formation compared to non-inhibited controls (=100% activity). The IC50 value was calculated (test compound concentration which produces 50% inhibition) by using Excel Xlfit.

[2] = PBS and FaSSIF solubility; type: physicochemical; conditions: kinetic from dmso stock
Protocol: Test compounds were prepared as 10 mM stocks in DMSO and 15 μl samples transferred in duplicate into 1.5 mL glass flat bottom vials (BioTech Solutions). Fasted state simulated intestinal fluid (FaSSIF) or PBS (pH 7.4) was added to each vial to final volume of 500 μl. One PTFE encapsulated stir stick (V&P Scientific) was placed in each vial before sealing with PTFE/SIL plugs (BioTech Solutions). Vials were shaken at 1100 rpm for 2 hr at 25° C. Samples were then filtered through MultiScreen Solvinert filter plates (Millipore) via vacuum filtration. Aliquots of filtrate (5 μl) plus 5 μl DMSO were diluted in 490 μl 50% acetonitrile in water containing internal standard. The filtrate was analysed and quantified against a standard of known concentration using LC-MS/MS. Solubility values of the test compound and control compound were calculated as follows: […]

mPTP = mPTP activity (Ca2+ retention) assay in isolated rat liver mitochondria; type: biochemical; conditions: for mPTP Rat liver pIC50: isolated rat liver mitochondria, average value from multiple experiments (n ≥ 2)
Excerpt: Pharmacological inhibition or modulation of the mPTP can be measured in well characterised ‘Ca^2+ retention’ assays performed in isolated mitochondria. In vitro isolated mitochondria rapidly sequester exogenous Ca^2+ until the intramitochondrial Ca^2+ concentration reaches the threshold for mPTP activation. Once the pore is activated, mitochondrial integrity is compromised and the stored Ca^2+ is released. The distribution of Ca^2+ between extra- and intra-mitochondrial compartments can be measured in real time with the use of membrane-impermeant Ca^2+ sensitive fluorescent dyes. Depending on the configuration of the assay, inhibition or modulation of the mPTP either delays the opening of the pore or increases the concentration of Ca^2+ required to induce mPTP opening.
MPTP activity was measured in mitochondria freshly isolated from female Sprague Dawley (250 to 300 gram) rat livers using the following method. Cervical dislocation was performed on the rat. The liver was then perfused in-situ with ˜40 ml cold Dulbecco's Phosphate Buffered Saline (DPBS) prior to dissection and transferred into 30 ml Isolation Buffer (250 mM Sucrose, 10 mM KCl, 1 mM EGTA, 1 mM EDTA, 25 mM HEPES, adjusted to pH 7.5 with 1 M NaOH). Each lobe of the liver was then removed from the buffer, minced using tweezers and a scalpel into ˜5 mm pieces then transferred into a 50 ml Potterton dounce homogenization tube on ice containing 30 ml ice-cold centrifugation buffer (300 mM Trehalose, 25 mM HEPES, 1 mM EGTA, 1 mM EDTA, 10 mM KCl, adjusted to pH 7.5 with 1 M NaOH and supplemented with 0.1% bovine serum albumin (BSA) and complete protease inhibitor cocktail (one tablet of inhibitor per 50 mls of buffer). Homogenisation was carried out using a teflon pestle at 1800 rpm. The slurry was centrifuged at 800 g for 10 min at 4° C., then the supernatant centrifuged at 10,000 g for 10 min. The pellet was washed once with FLIPR assay buffer (75 mM Mannitol, 25 mM Sucrose, 5 mM Potassium Phosphate Monobasic, 20 mM Tris base, 100 mM KCl, 0.1% BSA adjusted to pH 7.4 with 5M HCl) centrifuged again, then resuspended in FLIPR assay buffer to a concentration of 8.8 mg/ml protein.
Tested compounds (10 mM stock in DMSO) were serially diluted in DMSO in half log steps to generate 10 test concentrations (final concentrations in assay 30 μM to 1 nM). An intermediate dilution of 5 μl DMSO samples into 247 μl FLIPR assay buffer was carried out prior to transfer of 5 μl into duplicate wells of a 384 well polypropylene assay plate. Control wells were 0.5% (v/v) DMSO and 5 μM cyclosporin A.
A stock mitochondria/Fluo5N assay solution was prepared in 5.6 ml FLIPR assay buffer (at RT) supplemented with succinate disodium salt (10 mM), rotenone (1 μM), Fluo5N pentapotassium salt (2 μM) and 1 ml mitochondria suspension, then transferred (15 μl) into the assay plate containing test compounds and incubated for 10 min at RT. Assay plates were then transferred to a FLIPR Tetra plate reader (Molecular Devices). Dye fluorescence was then measured every 3 sec for a total of 10 min. After 12 sec, a 2.5 μl bolus of CaCl2 (75 μM) was added from a source plate containing 675 μM CaCl2 in FLIPR assay buffer. IC50 values for tested compounds were calculated using the fluorescence value collected at the 10 min timepoint with % inhibition calculated using the DMSO control and cyclosporin A values as […] respectively.

[3] = Hepatocyte clearance assay, human; type: in vitro ADME; conditions: average value from two experiments, read-out: Human heps Clint
Protocol: as §1, §2

[4] = cryopreserved primary rat hepatocytes
[5] = fasted state simulated intestinal fluid (FaSSIF), fassif, Fasted state simulated intestinal fluid, 2 hr at 25° C., read-out: Solubility FaSSIF
[6] = cryopreserved primary human hepatocytes
[7] = cryopreserved primary hepatocytes
[8] = aqueous buffer, PBS pH 7.4, 2 hr at 25° C., read-out: Solubility PBS (pH 7.4)

Chain of CYP2D6 (P10635 whole entry, canonical isoform): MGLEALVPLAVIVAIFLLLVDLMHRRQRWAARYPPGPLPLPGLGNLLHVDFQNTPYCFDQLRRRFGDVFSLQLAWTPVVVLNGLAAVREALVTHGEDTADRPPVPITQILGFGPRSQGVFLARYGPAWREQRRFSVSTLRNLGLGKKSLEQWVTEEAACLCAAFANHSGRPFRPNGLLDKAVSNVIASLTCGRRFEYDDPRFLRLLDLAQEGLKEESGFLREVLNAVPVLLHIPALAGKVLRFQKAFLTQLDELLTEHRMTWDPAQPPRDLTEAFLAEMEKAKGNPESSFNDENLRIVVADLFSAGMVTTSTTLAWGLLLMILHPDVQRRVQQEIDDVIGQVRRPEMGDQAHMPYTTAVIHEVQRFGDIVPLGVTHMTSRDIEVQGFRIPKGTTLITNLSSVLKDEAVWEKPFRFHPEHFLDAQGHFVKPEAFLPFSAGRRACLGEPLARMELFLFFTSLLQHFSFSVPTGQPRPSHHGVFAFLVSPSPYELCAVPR

Row | Structure (SMILES) | hepatocyte CLint at 1 µM [1, 4] | inhibition at 20 min, 1 µM (CYP2D6) | solubility at 2 h [2, 5] | mPTP Rat liver pIC50 (mPTP) | hepatocyte CLint at 1 µM [3, 6] | IC50 (CYP2D6) | hepatocyte CLint at 1 µM [3, 7] | solubility at 2 h [2, 8] | activity in the rat liver mitochondria assay (in words) (mPTP) | hepatocyte CLint at 1 µM [1, 7]
1 | Cc1ccc(F)c(C)c1NC(=O)/C=C/c1ccc2c(c1)NC(=O)C2 [Example 20, (E)-N-(3-fluoro-2,6-dimethylphenyl)-3-(2-oxoindolin-6-yl)acrylamide] | 11.9 µL/min/1e6 cells | -1.76% | 210 µM (≈ 68.3 µg/mL) | 6.8 | 6.08 µL/min/1e6 cells |  |  |  |  | 
2 | N#Cc1n[nH]c2cc(/C=C/C(=O)NC3CCc4ccccc43)ccc12 (stereo not shown) [Example 26, (E)-3-(3-cyano-1H-indazol-6-yl)-N-(2,3-dihydro-1H-inden-1-yl)acrylamide] | 87.5 µL/min/1e6 cells | 3.49% |  | 7.2 |  | 8.8 µM |  |  |  | 
3 | O=C(/C=C/c1cc2[nH]nnc2cc1F)NC1CCc2ccccc21 (stereo not shown) [Example 27, (E)-N-(2,3-dihydro-1H-inden-1-yl)-3-(5-fluoro-1H-benzo[d][1,2,3]triazol-6-yl) acrylamide] |  | 14.3% | 43.1 µM (≈ 13.9 µg/mL) |  |  |  | 9.6 µL/min/1e6 cells |  |  | 
4 | Cc1cccc(C)c1NC(=O)/C=C/c1ccc2c(c1)[nH]c(=O)n2C [Example 29, (E)-N-(2,6-dimethylphenyl)-3-(1-methyl-2-oxo-2,3-dihydro-1H-benzo[d]imidazol-5-yl)acrylamide] | 16.1 µL/min/1e6 cells | -3.03% | 69.8 µM (≈ 22.4 µg/mL) | 6.9 |  |  |  | 33.5 µM (≈ 10.8 µg/mL) |  | 
5 | Cc1c(F)cc(F)c(C)c1NC(=O)/C=C/c1ccc2c(c1)NC(=O)C2 [Example 35, (E)-N-(3,5-difluoro-2,6-dimethylphenyl)-3-(2-oxoindolin-6-yl)acrylamide] |  | 2.83% | 258 µM (≈ 88.4 µg/mL) | 7.2 | 8.33 µL/min/1e6 cells |  |  |  |  | 
6 | Cc1cc(F)c(F)c(C)c1NC(=O)/C=C/c1ccc2c(c1)NC(=O)C2 [Example 36, (E)-N-(3,4-difluoro-2,6-dimethylphenyl)-3-(2-oxoindolin-6-yl)acrylamide] | 9.41 µL/min/1e6 cells | -2.57% |  | 7.2 | 7.26 µL/min/1e6 cells |  |  | 65.9 µM (≈ 22.6 µg/mL) |  | 
7 | Cc1c(F)cccc1NC(=O)/C=C/c1ccc2c(C)n[nH]c2c1 [Example 37, (E)-N-(3-fluoro-2-methylphenyl)-3-(3-methyl-1H-indazol-6-yl)acrylamide] | 87.6 µL/min/1e6 cells | 5.04% | 2.95 µM (≈ 0.913 µg/mL) | 8.1 | 18.9 µL/min/1e6 cells |  |  |  | highest activity | 
8 | COCc1c(F)cccc1NC(=O)/C=C/c1ccc2c(C)n[nH]c2c1 [Example 50, (E)-N-(3-fluoro-2-(methoxymethyl)phenyl)-3-(3-methyl-1H-indazol-6-yl)acrylamide] | 47.8 µL/min/1e6 cells | 1.3% | 23.7 µM (≈ 8.04 µg/mL) | 7.3 | 15.6 µL/min/1e6 cells |  |  |  |  | 
9 | CO[C@H]1Cc2ccccc2[C@@H]1NC(=O)/C=C/c1ccc2c(C3CC3)n[nH]c2c1 [Example 70, (E)-3-(3-cyclopropyl-1H-indazol-6-yl)-N-((1S,2S)-2-methoxy-2,3-dihydro-1H-inden-1-yl)acrylamide] | 70.1 µL/min/1e6 cells | 7.5% | 18.4 µM (≈ 6.87 µg/mL) | 7.5 | 24.6 µL/min/1e6 cells |  |  |  |  | 
10 | CO[C@H]1Cc2ccccc2[C@@H]1NC(=O)/C=C/c1ccc2c(Cl)n[nH]c2c1 [Example 72, (E)-3-(3-chloro-1H-indazol-6-yl)-N-((1S,2S)-2-methoxy-2,3-dihydro-1H-inden-1-yl)acrylamide] |  | 9.98% | 24.4 µM (≈ 8.98 µg/mL) |  |  |  | 11.3 µL/min/1e6 cells |  |  | 77 µL/min/1e6 cells
11 | COCc1c(F)cncc1NC(=O)/C=C/c1ccc2c(C)n[nH]c2c1 [Example 114, (2E)-N-[5-fluoro-4-(methoxymethyl)pyridin-3-yl]-3-(3-methyl-1H-indazol-6-yl)prop-2-enamide] |  |  | 19 µM (≈ 6.47 µg/mL) |  |  |  | 3 µL/min/1e6 cells |  |  | 76 µL/min/1e6 cells
